# In patent US4136179A, “2,2-Dimethyl-19-nor-steroids” (Roussel Uclaf, priority 1976, dated 1979):
# System: aldosterone monoacetate
# Assay: Anti-aldosterone activity in surrenalectomized rats (urinary sodium/potassium)
# Assay type: in vivo, rat (male, Sprague-Dawley)
# Details: for % inhibition of the activity of 1 μg/kg of aldosterone monoacetate: surrenalectomized male Sprague-Dawley rats, aldosterone 1 μg/kg s.c., 4 hours urine, sodium and potassium; for antialdosterone activity (in words): orally administered
# Method: Male rats of the Sprague-Dawley strain weighing about 180 g were surrenalectomized and at that moment, the rats received with their drinking water physiological serum. On the 4th day, the animals were fasted for 16 hours and then received as drinking water water containing 5% glucose. The test product was administered orally at the end of 16 hours in the form of a suspension in 0.25% carboxymethylcellulose. One hour after the administration of the product, they received intraperitoneally a surcharge of aqueous sodium chloride at a rate of 5 ml per 100 g of body weight of […] physiological serum and subcutaneously 1 μg/kg of an alcoholic solution of 2.5% of aldosterone acetate. The animals were placed in diuresis cages without food or drink for 4 hours. At the end of this time, a miction was forced by pressure on the bladder and the volume of urine was adjusted to 50 ml and the amount of sodium and potassium was determined with an autoanalyser. The results expressed as the percentage of inhibition of the activity of 1 μg/kg of aldosterone monoacetate injected subcutaneously with the ratio of [formula] in the surrenalectomized rats is reported in the following Table.
Compound,% inhibition of the activity of 1 μg/kg of aldosterone monoacetate (oral dose 5 mg/kg) [%],antialdosterone activity (in words),% inhibition of the activity of 1 μg/kg of aldosterone monoacetate (oral dose 10 mg/kg) [%]
"CC1(C)CC2C(=CC1=O)CCC1C2CCC2(C)C(C(=O)CO)CCC12 (stereo not shown) [Example 3, 2,2-dimethyl-19-nor-Δ^4-pregnene-21-ol-3,20-dione]",50,interesting antialdosterone activity,
"CC1(C)CC2=C3C=CC4(C)C(C(=O)CO)CCC4C3CCC2=CC1=O (stereo not shown) [Example 9, 2,2-dimethyl-19-nor-Δ^4,9,11-pregnatriene-21-ol-3,20-dione]",,interesting antialdosterone activity,91
